Measured values taken from US20230265068A1, “TRANSIENT RECEPTOR POTENTIAL CANONICAL 3 INHIBITORS AND METHODS OF USE THEREOF” (University of Tennessee Research Foundation, priority 2020, published 2023).
Read-outs that look alike come from different tables or passages of the source.

Columns and labels:
[1] = target: T1, rTRPV4 (Rattus norvegicus, UniProt Q9ERZ8); test: whole-cell patch clamp selectivity, HEK 293 cells overexpressing rTRPV4; type: cell-based; conditions: HEK293, with agonist, solutions without Ca2+, read-out: % of the current of rTRPV4 inhibited
T1 construct: expressed in transfected cells; host or cells: HEK293, transient transfection, pMO vector
Experimental: Human embryonic kidney 293 (HEK293; catalog number CRL-1573) cells were cultured in Dulbecco's modified Eagle's medium (Invitrogen) supplemented with 10% fetal bovine serum and 1% penicillin-streptomycin at 37° C. and 5% CO2. Constructs cloned in pMO (a pcDNA3-modified vector) were co-transfected with GFP-pMO, using Lipofectamine 2000 (Invitrogen) according to the manufacturer's instructions. Macroscopic currents in the whole-cell patch clamp configuration were recorded 18-24 h post-transfection. The extracellular solution contained 140 mM NaCl, 6 mM KCl, 2 mM MgCl2, 10 mM HEPES, and 10 mM glucose (pH 7.4). Pipettes were made of borosilicate glass (outer diameter, 1.5 mm; inner diameter, 1.10 mm; Sutter Instruments) and fire-polished with a resistance between 2.8 and 4.0 megaohms when filled with an intracellular solution that contained 140 mM CsCl, 5 mM EGTA, and 10 mM HEPES, pH 7.2. Currents were recorded with a Multiclamp 700B amplifier (Molecular Devices) using a 1-s ramp from −100 to 100 mV. […] Data were acquired with a sampling rate of 20 kHz, low-pass filtered (10 kHz), and analyzed offline using Clampfit v10.4.2.0 (Molecular Devices). […]

[2] = target: T2, TRPC3 (Homo sapiens, UniProt Q13507); test: whole-cell patch clamp of HEK293 cells transfected with hTRPC3, currents activated by GSK1702934A; type: cell-based; design: expressed in transfected cells; host or cells: HEK293 (CRL-1573), transient transfection, pMO vector
T2 sequence (Q13507 1-921): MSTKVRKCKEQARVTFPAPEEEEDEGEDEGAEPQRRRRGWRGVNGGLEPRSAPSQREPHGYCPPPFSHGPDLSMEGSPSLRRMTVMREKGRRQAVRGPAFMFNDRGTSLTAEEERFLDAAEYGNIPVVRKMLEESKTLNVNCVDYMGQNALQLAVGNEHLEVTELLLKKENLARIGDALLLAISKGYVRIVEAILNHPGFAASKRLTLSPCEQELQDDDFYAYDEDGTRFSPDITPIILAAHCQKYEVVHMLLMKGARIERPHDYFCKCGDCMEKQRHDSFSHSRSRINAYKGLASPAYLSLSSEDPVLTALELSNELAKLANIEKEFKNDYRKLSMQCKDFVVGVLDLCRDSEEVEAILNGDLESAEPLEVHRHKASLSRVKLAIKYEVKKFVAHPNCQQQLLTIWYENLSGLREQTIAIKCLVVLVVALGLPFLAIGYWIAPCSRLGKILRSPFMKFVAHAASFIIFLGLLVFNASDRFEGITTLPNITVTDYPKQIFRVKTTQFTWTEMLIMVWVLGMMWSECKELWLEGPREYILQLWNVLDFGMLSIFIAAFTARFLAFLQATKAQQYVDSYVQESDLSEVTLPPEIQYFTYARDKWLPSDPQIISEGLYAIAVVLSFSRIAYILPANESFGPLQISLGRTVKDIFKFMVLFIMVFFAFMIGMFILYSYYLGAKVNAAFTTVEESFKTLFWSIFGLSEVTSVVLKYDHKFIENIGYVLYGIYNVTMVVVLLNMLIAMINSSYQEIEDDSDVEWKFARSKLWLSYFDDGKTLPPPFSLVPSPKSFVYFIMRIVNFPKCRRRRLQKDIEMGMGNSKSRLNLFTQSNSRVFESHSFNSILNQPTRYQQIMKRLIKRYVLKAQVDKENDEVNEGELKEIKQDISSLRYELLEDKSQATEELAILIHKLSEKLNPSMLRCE
Summary of the method: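 Whole-cell patch clamp on HEK293 cells co-transfected with hTRPC3 and GFP, recorded 18-24 h post-transfection. Bath held 140 mM NaCl, pH 7.4; pipette held 140 mM CsCl/5 mM EGTA, pH 7.2. Currents came from 1-s ramps −100 to 100 mV with GSK1702934A; compounds screened at 10 μM, IC50 from single-cell dose points.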

T1 sequence (Q9ERZ8 whole entry): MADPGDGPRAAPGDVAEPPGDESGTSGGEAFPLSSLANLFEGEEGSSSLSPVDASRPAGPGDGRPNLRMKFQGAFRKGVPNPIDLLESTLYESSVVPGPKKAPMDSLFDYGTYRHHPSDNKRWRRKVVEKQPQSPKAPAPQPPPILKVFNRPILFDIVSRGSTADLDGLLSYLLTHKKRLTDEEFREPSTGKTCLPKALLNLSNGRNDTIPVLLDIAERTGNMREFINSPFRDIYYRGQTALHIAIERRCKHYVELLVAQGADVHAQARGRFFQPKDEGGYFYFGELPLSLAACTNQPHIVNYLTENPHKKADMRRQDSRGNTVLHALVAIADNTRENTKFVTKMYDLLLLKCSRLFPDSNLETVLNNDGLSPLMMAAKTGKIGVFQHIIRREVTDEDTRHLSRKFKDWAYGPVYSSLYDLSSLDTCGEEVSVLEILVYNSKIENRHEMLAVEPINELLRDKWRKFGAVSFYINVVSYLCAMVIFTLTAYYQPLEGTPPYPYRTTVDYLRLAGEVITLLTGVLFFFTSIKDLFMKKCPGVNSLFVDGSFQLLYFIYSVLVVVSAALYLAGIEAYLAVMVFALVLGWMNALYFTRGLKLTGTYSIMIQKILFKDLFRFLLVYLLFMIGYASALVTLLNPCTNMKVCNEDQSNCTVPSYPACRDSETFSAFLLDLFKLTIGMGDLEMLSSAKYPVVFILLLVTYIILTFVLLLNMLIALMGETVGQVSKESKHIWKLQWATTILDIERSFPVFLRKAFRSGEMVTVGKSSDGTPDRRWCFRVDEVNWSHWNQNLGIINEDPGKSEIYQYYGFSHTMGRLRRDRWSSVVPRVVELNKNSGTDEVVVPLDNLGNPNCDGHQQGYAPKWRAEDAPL

SMILES: CCNC(=O)c1cnn(-c2ccc(-n3ccc(Cl)c(Cl)c3=O)cc2)c1C(F)(F)F [Compound 22]
- inhibition at 10 µM [1]: < 5%
- inhibition at 10 µM ([2]; 10 μM compound in presence of agonist GSK1702934A, HEK293 whole-cell peak current, read-out: hTRPC3 % Inhibition at 10 μM (mean ± SEM)): 89 ± 1.14%
- IC50 ([2]; agonist GSK1702934A, HEK293 whole-cell patch clamp, read-out: hTRPC3 IC50 (μM, mean ± SEM)): 0.37 ± 0.03 µM
- IC50 ([2]; same value expressed in ng/ml, read-out: TRPC3 IC50 displayed in FIG. 6 (converted)): 0.51 µM
- IC50 ([2]; value shown in brain concentration figure, read-out: TRPC3 IC50 displayed in FIG. 6 (converted)): 0.51 µM
